For ten molecules, melting point and Ki results are on record in US20100076011A1, “Enantiomer-Pure Hexahydro-Pyrrolocyclopenta-Pyridine Derivatives” (priority 2004, published 2010).

By melting point is commonly meant the temperature, or range, at which the solid turns liquid. The term Ki denotes the dissociation constant of the complex between target and ligand, obtained from inhibition or displacement.

SMILES strings stand for the structures. Where a name gives a salt, the structure may show the parent alone.

Tested on in the first series: not given
Experiment: not given
Details: not given
The molecule `c1cc2c(cn1)[C@H]1NCC[C@H]1C2` (as salt: hydrochloride) [Example 6, (−)-[3aR-(3aα,8bα)]-1,2,3,3a,4,8b-Hexahydropyrrolo[3′,2′:4,5]-cyclopenta[1,2-c]pyridinodihydrochloride] came in with a melting point of 94 to 95 °C.

As for `c1cnc2c(c1)C1NCCC1C2` (single isomer, unassigned; (-)) (as salt: hydrochloride) [Example 2, (−)-[3aα,8bα]-1,2,3,3a,4,8b-Hexahydropyrrolo-[2′,3′:3,4]cyclopenta[1,2-b]pyridine-dihydrochloride], the melting point was 95 to 97 °C.

The target in a further series is T1, α4β2-subtype (central nicotine receptor) (Rattus norvegicus, UniProt P09483+P12390).
T1 construct: Membrane-enriched fractions of rat brain without cerebellum; tissue ABS Inc. Wilmington, Del; host or cells: rat brain without cerebellum, membrane-enriched fractions
T1 sequence (P09483 31-630): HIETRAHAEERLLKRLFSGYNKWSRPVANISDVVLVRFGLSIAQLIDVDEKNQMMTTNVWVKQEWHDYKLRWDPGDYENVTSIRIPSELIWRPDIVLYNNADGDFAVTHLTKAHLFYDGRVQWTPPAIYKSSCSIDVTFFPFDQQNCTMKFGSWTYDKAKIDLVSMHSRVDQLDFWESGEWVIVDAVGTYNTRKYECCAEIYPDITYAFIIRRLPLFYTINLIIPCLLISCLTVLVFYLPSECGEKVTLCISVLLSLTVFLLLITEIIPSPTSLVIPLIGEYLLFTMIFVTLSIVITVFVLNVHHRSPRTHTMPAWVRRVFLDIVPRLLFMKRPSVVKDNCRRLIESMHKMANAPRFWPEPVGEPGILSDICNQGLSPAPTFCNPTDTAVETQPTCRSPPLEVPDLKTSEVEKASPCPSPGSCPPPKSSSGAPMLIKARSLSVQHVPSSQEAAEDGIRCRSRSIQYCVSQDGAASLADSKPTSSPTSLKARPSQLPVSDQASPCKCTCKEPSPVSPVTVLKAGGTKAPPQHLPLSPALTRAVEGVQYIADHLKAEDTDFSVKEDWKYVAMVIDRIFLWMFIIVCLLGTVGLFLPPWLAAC
T1 sequence (P12390 25-500): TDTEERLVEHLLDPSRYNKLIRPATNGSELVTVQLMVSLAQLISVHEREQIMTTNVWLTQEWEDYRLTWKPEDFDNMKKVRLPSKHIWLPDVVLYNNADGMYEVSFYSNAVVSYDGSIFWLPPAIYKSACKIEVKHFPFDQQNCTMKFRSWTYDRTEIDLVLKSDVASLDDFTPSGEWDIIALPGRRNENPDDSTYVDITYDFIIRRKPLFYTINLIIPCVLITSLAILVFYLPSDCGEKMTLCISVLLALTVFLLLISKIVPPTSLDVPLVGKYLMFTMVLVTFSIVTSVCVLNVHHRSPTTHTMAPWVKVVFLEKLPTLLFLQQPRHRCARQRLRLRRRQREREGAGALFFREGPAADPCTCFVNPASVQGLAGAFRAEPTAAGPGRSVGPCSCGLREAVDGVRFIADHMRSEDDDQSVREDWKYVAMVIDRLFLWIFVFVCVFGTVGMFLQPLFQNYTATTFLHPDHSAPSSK
As to the kind of experiment: Radioligand assay: [3H] cytisin binding to the α4β2-subtype in rat brain membranes.
Details: not given
How it is done: (2 samples each). The non-specific binding was determined with 10 μM (−)nicotine. The incubation was […] by vacuum filtration through a Whatman GF/C filter which previously had been humidified with 0.5% polyethylene imine. Bound radioactivity was collected on Millipore Multiscreen plates FB with a Packard Cell Harvester, and determined with a Packard Topcount Microplate Beta Counter. IC50 values were determined by non-linear regression, and from this the Ki values by means of the Cheng-Prusoff equation, wherein Ki=IC50/1+[ligand]/KID. The mean Ki values were obtained from at least three individual determinations.
Consider `c1cnc2c(c1)C1NCCC1C2` (single isomer, unassigned; (+)) [Example 1, (+)-[3aα,8bα]-1,2,3,3a,4,8b-Hexahydropyrrolo-[2′,3′:3,4]cyclopenta[1,2-b]pyridine-dihydrochloride], for which the Ki came out at 2.43 µM. `CN1CCC2Cc3ncccc3C21` (single isomer, unassigned; (+)) [Example 4, (+)-[3aα,8bα]-1,2,3,3a,4,8b-Hexahydro-1-methyl-pyrrolo[2′,3′:3,4]cyclopenta[1,2-b]pyridinedihydrochloride] had a Ki of over 1000 µM. With `c1cnc2c(c1)C1NCCC1C2` (single isomer, unassigned; (-)) [Example 2, (−)-[3aα,8bα]-1,2,3,3a,4,8b-Hexahydropyrrolo-[2′,3′:3,4]cyclopenta[1,2-b]pyridine-dihydrochloride], the Ki is over 1000 µM. The same measure, in the same setting: the value for `CN1CCC2Cc3ncccc3C21` (single isomer, unassigned; (-)) [Example 3, (−)-[3aα,8bα]-1,2,3,3a,4,8b-Hexahydro-1-methyl-pyrrolo[2′,3′:3,4]cyclopenta[1,2-b]pyridine-dihydrochloride] was 0.199 µM; that for `c1cc2c(cn1)[C@H]1NCC[C@H]1C2` [Example 6, (−)-[3aR-(3aα,8bα)]-1,2,3,3a,4,8b-Hexahydropyrrolo[3′,2′:4,5]-cyclopenta[1,2-c]pyridinodihydrochloride] was 0.0152 µM; that for `CN1CC[C@@H]2Cc3ccncc3[C@@H]21` [Example 7, (+)-[3aS-(3aα,8bα)]-1,2,3,3a,4,8b-Hexahydro-1-methyl-pyrrolo[3′,2′:4,5]-cyclopenta[1,2-c]pyridinodihydrochloride] was 1.67 µM. For `CN1CC[C@H]2Cc3ccncc3[C@H]21` [Example 8, (−)-[3aR-(3aα,8bα)]-1,2,3,3a,4,8b-Hexahydro-1-methylpyrrolo[3′,2′:4,5]cyclopenta[1,2-c]pyridinodihydrochloride], affinity was put at a Ki of 0.027 µM.

The series is the same for the next values; noted with them: [3H] cytisin 0.75 nM, rat brain membranes without cerebellum, 75 min at 4° C.; mean of at least three determinations; Ki from IC50 by Cheng-Prusoff; read-out: Ki Values of the Enantiomer Pairs.
With `c1cc2c(cn1)[C@@H]1NCC[C@@H]1C2` [Example 5, (+)-(3aS-(3aα,8bα)]-1,2,3,3a,4,8b-Hexahydropyrrolo[3′,2′:4,5]-cyclopenta[1,2-c]-pyridinodihydrochloride], the Ki was 1.11 µM.
